Our source for the Activity values is ChEMBL document CHEMBL3994663, “Iminosugar-based ceramide mimicry for the design of new CERT START domain ligands” (Bioorg Med Chem, 2017).

For the test, the target named is T1, Ceramide transfer protein (Homo sapiens) (UniProt Q9Y5P4).
T1 sequence (whole entry): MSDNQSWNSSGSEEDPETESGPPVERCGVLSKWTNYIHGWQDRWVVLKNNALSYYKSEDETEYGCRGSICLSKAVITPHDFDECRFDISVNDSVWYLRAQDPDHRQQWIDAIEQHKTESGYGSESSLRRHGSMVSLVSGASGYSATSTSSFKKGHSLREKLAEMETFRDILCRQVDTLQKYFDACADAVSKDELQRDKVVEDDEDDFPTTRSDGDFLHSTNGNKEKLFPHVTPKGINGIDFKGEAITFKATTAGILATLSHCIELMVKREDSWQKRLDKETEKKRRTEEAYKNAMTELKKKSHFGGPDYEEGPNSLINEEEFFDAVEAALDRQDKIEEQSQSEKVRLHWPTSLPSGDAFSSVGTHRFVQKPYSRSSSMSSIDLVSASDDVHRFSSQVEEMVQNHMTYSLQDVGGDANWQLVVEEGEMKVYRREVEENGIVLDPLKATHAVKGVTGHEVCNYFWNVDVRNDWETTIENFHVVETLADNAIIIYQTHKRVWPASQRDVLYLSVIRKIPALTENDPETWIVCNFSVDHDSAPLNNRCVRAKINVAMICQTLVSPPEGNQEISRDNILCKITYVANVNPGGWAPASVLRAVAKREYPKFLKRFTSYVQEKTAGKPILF
The test is described as follows: Inhibition of fluorescent ceramide probe binding to recombinant His-tagged START domain of CERT (unknown origin) assessed as bound fluorescent ceramide probe level at 200 pmol preincubated for 30 mins followed by ceramide probe addition after 30 mins by FLINT assay (reference value: 28.4 +/- 2.75%). More on the design: scale not given: the % may be the effect or the level left.
Take `CCCCCCCCCCCCO[C@H]1CNC[C@@H](OCCCCCCCCCCCC)[C@@H]1O`: the Activity worked out at 51.1%.

On to `CCCCCCCCCCCCN1C[C@@H](O)[C@H](O)[C@@H](O)C1`, for which the Activity turned out to be 48%.

For `CCCCCCCCCCCCO[C@H]1CNC[C@@H](O)[C@@H]1O`, the Activity was 41%.

For the compound `CCCCCCCCCCCCO[C@@H]1CNC[C@@H](O)[C@@H]1O`, the Activity amounted to 61.3%.

Regarding `O[C@H]1[C@H](O)CNC[C@@H]1O`, the Activity was found to be 36.6%.

For the compound `CCCCCCCCCCCCO[C@@H]1CN(CCCCCCCCCCCC)C[C@@H](O)[C@@H]1O`, the Activity was found to be 54.3%.

`CCCCCCCCCCCC(=O)N[C@@H](CO)C[C@H](O)c1ccccc1`: the Activity amounted to 25.5%.

For the compound `CCCCCCCCCCCCO[C@H]1CN(CCCCCCCCCCCC)C[C@@H](O)[C@@H]1O`, the Activity came to 30.1%.
